In patent US11447466B2, “Substituted indole compounds useful as inhibitors of TLR7/8/9” (BRISTOL-MYERS SQUIBB COMPANY, priority 2017, dated 2022) one finds IC50 data, which are given here for 13 compounds.

Common to all, as to assay type: cell-based
Test [1] concerns the target T1, human TLR9 (Homo sapiens, UniProt Q9NR96).
T1 construct: host or cells: HEK-Blue cells
T1 sequence (Q9NR96 26-1032): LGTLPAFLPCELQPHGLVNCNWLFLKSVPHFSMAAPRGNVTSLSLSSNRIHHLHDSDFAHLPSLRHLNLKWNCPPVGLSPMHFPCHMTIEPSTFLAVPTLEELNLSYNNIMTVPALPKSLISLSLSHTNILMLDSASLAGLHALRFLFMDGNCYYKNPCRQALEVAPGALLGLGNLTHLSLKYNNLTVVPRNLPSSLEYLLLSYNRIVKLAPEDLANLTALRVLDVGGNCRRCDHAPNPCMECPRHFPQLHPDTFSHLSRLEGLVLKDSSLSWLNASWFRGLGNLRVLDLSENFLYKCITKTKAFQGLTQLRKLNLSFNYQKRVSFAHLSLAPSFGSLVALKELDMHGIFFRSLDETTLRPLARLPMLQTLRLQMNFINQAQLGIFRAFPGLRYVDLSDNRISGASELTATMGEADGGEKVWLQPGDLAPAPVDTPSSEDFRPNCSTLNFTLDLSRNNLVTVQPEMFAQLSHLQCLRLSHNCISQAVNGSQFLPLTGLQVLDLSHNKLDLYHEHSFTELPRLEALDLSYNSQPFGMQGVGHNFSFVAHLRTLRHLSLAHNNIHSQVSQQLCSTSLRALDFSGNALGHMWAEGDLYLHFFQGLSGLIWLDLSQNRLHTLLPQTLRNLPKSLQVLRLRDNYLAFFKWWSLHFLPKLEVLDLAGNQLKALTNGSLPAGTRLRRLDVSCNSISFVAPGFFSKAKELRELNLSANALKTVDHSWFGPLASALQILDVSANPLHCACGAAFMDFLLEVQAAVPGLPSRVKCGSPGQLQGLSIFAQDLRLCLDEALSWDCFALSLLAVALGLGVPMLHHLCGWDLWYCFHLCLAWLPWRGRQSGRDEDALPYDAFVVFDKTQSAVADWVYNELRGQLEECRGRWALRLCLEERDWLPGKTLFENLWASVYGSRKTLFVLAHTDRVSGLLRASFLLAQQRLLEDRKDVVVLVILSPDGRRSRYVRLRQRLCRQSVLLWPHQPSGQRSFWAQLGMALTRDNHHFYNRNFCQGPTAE
As to the kind of experiment: TLR9 inhibition reporter assay (HEK-Blue SEAP reporter, ODN2006 stimulation). The note with it: HEK-Blue cells overexpressing human TLR9, SEAP reporter, ODN2006 5 nM, 22 hour incubation. The method in brief: (§1)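 Agonists used: gardiquimod 7.5 μM (TLR7), R848 15.9 μM (TLR8), ODN2006 5 nM (TLR9), added after 30 min room-temperature compound pre-treatment (0.05 nM–50 μM) of receptor-overexpressing HEK-Blue cells. SEAP reporter (NF-κB/AP-1 driven) read after 22 h at 37 °C; inhibition scaled between agonist+DMSO and reference-inhibitor wells.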

Test [2] has as its target T2, human TLR8 (Homo sapiens, UniProt Q9NR97).
T2 construct: host or cells: HEK-Blue cells
T2 sequence (Q9NR97 27-1041): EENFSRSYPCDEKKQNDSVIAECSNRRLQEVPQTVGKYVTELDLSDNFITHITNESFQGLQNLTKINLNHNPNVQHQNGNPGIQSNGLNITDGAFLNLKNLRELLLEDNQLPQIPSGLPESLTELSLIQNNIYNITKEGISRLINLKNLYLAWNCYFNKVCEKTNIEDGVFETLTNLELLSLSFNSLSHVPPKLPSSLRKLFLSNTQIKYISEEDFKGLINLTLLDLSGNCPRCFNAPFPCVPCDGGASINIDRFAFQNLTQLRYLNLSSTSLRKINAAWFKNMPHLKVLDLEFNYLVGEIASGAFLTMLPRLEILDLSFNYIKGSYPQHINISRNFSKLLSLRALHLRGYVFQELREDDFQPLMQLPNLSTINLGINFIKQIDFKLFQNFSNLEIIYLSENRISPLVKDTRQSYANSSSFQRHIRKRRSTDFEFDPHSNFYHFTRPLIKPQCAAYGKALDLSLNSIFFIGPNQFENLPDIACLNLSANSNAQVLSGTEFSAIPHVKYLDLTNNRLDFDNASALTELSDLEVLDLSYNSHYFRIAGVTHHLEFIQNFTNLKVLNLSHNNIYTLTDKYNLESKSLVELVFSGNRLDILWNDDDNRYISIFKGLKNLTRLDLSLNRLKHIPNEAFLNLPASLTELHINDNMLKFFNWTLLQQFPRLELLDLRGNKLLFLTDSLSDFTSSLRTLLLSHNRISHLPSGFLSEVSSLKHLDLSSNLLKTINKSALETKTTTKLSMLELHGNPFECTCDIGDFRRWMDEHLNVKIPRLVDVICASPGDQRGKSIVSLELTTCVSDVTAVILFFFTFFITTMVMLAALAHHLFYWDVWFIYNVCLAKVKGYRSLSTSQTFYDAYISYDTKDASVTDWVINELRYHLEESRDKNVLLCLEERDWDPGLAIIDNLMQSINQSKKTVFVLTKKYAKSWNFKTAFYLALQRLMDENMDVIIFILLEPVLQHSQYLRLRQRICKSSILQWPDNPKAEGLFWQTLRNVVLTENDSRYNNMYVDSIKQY
The test is described as follows: TLR8 inhibition reporter assay (HEK-Blue SEAP reporter, R848 stimulation). The note with it: HEK-Blue cells overexpressing human TLR8, SEAP reporter, R848 15.9 μM, 22 hour incubation. An outline of the steps: as §1

Test [3] has as its target T3, human TLR7 (Homo sapiens, UniProt Q9NYK1).
T3 construct: host or cells: HEK-Blue cells
T3 sequence (Q9NYK1 27-1049): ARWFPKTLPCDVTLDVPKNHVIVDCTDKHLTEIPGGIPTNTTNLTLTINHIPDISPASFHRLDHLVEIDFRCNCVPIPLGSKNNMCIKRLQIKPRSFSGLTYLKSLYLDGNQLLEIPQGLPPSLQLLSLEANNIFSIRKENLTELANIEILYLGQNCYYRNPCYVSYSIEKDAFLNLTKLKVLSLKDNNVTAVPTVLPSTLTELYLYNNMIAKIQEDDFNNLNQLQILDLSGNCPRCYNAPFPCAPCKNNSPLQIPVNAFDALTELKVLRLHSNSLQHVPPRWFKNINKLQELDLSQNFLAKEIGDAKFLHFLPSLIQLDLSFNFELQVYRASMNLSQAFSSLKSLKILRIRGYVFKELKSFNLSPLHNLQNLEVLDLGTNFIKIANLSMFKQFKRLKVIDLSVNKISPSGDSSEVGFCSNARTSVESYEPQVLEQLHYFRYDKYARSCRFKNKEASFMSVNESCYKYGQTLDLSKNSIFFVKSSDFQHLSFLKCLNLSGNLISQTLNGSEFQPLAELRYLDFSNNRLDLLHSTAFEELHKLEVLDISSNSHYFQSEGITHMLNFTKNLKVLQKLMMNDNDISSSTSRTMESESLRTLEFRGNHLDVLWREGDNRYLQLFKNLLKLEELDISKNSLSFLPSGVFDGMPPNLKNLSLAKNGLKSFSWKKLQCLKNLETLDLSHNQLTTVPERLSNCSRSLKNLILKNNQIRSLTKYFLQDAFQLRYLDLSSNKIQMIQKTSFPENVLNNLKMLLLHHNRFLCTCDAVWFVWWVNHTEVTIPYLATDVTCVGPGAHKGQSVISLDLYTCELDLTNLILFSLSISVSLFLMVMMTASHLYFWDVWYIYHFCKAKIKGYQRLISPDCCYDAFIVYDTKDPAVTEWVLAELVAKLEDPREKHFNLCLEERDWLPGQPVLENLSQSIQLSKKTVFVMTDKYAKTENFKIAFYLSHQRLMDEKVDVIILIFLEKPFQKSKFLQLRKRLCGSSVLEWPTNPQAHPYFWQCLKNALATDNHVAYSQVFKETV
As to the kind of experiment: TLR7 inhibition reporter assay (HEK-Blue SEAP reporter, gardiquimod stimulation). The note with it: HEK-Blue cells overexpressing human TLR7, SEAP reporter, gardiquimod 7.5 μM, 22 hour incubation. An outline of the steps:
as §1
In general terms: A reporter such as luciferase makes a cellular process visible.

One may read the IC50 as the concentration at which inhibition is half-maximal. Higher therefore signals weaker potency. On to `Cc1cc(-c2[nH]c3ccc(C4CCN(CC(=O)N(C)C)CC4)cc3c2C(C)C)cn(C)c1=O` [Example 71, 2-(4-(2-(1,5-dimethyl-6-oxo-1,6-dihydropyridin-3-yl)-3-isopropyl-1H-indol-5-yl)piperidin-1-yl)-N,N-dimethylacetamide], for which the IC50 in test [1] was 11000 nM; in test [2], 5.1 nM; in test [3], 2.8 nM.

For `COc1c(C)c(-c2[nH]c3ccc(C4CCN(C(=O)CN(C)C)CC4)cc3c2C(C)C)cn(C)c1=O` [Example 276, 5-(5-(1-(dimethylglycyl)piperidin-4-yl)-3-isopropyl-1H-indol-2-yl)-3-methoxy-1,4-dimethylpyridin-2(1H)-one], the IC50 in test [1] amounted to 4760 nM; in test [2], 80.2 nM; in test [3], 52.2 nM.

For `Cc1cc(-c2[nH]c3ccc(C4CCN(C(=O)CN(C)C)CC4)cc3c2C(C)C)cn(C)c1=O` [Example 271, 5-(5-(1-(2-(dimethylamino)acetyl)piperidin-4-yl)-3-isopropyl-1H-indol-2-yl)-1,3-dimethylpyridin-2(1H)-one], the IC50 in test [1] worked out at 13500 nM; in test [2], 8.3 nM; in test [3] it was 5.3 nM.

For the compound `Cc1cc(-c2[nH]c3ccc(C4CCN(Cc5ccn(C)n5)CC4)cc3c2C(C)C)cn(C)c1=O` [Example 195, 5-(3-isopropyl-5-(1-((1-methyl-1H-pyrazol-3-yl)methyl)piperidin-4-yl)-1H-indol-2-yl)-1,3-dimethylpyridin-2(1H)-one], the IC50 in test [1] stood at 5190 nM; in test [2], 2.6 nM; in test [3] it was 3.9 nM.

Consider `Cc1c(-c2[nH]c3ccc(C4CCN(CCC(C)(C)O)CC4)cc3c2C(C)C)cn(C)c(=O)c1C` [Example 73, 5-(5-(1-(3-hydroxy-3-methylbutyl)piperidin-4-yl)-3-isopropyl-1H-indol-2-yl)-1,3,4-trimethylpyridin-2(1H)-one], for which the half-inhibitory concentration (IC50) in test [1] was found to be 6070 nM; in test [2], 3.3 nM; in test [3] it was 8 nM.

Consider `CC(C)c1c(-c2ccc(=O)n(C)c2)[nH]c2ccc(C3CCNCC3)cc12` [Example 1, 5-(3-isopropyl-5-(piperidin-4-yl)-1H-indol-2-yl)-1-methylpyridin-2(1H)-one], for which the values for the IC50 in test [1], in test [2] and in test [3] were 621 nM, 15.4 nM and 27.5 nM, respectively.

`CC(C)c1c(-c2cc(F)c(=O)n(C)c2)[nH]c2ccc(C3CCNCC3)cc12` [Example 13, 3-fluoro-5-(3-isopropyl-5-(piperidin-4-yl)-1H-indol-2-yl)-1-methylpyridin-2(1H)-one]: the IC50 in test [1] came out at 593 nM; in test [2], 33.9 nM; in test [3], 18.2 nM.

Turning to `CC(C)c1c(-c2cc(-c3cccc(C(N)=O)c3)c(=O)n(C)c2)[nH]c2ccc(C3CCNCC3)cc12` [Example 58, 3-(5-(3-isopropyl-5-(piperidin-4-yl)-1H-indol-2-yl)-1-methyl-2-oxo-1,2-dihydropyridin-3-yl)benzamide], the values for the IC50 in test [1], in test [2] and in test [3] were 3480 nM, 222 nM and 5.4 nM, respectively.

Turning to `Cc1cc(-c2[nH]c3ccc(C4CCN(C(=O)CN(C)C)CC4)cc3c2C(C)C)c(C)n(C)c1=O` [Example 279, 5-(5-(1-(dimethylglycyl)piperidin-4-yl)-3-isopropyl-1H-indol-2-yl)-1,3,6-trimethylpyridin-2(1H)-one], the figures for the IC50 in test [1], in test [2] and in test [3] were 7060 nM, 5.9 nM and 23.1 nM, respectively.

In the case of `Cc1c(-c2[nH]c3ccc(C4CCN(C5CCCC5)CC4)cc3c2C(C)C)cn(C)c(=O)c1Cl` [Example 97, 3-chloro-5-(5-(1-cyclopentylpiperidin-4-yl)-3-isopropyl-1H-indol-2-yl)-1,4-dimethylpyridin-2(1H)-one], the IC50 was found to be 2050 nM in test [1], 9.7 nM in test [2] and 5.2 nM in test [3].

For the compound `COCCN1CCC(c2ccc3[nH]c(-c4cc(-c5ccc(C)nc5)c(=O)n(C)c4)c(C(C)C)c3c2)CC1` [Example 349, 5-(3-isopropyl-5-(1-(2-methoxyethyl)piperidin-4-yl)-1H-indol-2-yl)-1,6′-dimethyl-[3,3′-bipyridin]-2(1H)-one], the IC50 was determined as 782 nM in test [1], 72.6 nM in test [2] and 14.5 nM in test [3].

As to `COCc1cc(-c2[nH]c3ccc(C4CCN(C5COC5)CC4)cc3c2C(C)C)cn(C)c1=O` [Example 346, 5-(3-isopropyl-5-(1-(oxetan-3-yl)piperidin-4-yl)-1H-indol-2-yl)-3-(methoxymethyl)-1-methylpyridin-2(1H)-one], the IC50 in test [1] was 16700 nM; in test [2], 86.8 nM; in test [3], 37.9 nM.

For `CCn1cc(-c2[nH]c3ccc(C4CCN(CC(=O)NC)CC4)cc3c2C(C)C)c(C)c(C)c1=O` [Example 137, 2-(4-(2-(1-ethyl-4,5-dimethyl-6-oxo-1,6-dihydropyridin-3-yl)-3-isopropyl-1H-indol-5-yl)piperidin-1-yl)-N-methylacetamide], the IC50 in test [1] amounted to 11500 nM; in test [2] it was 12.3 nM; in test [3] it was 19.9 nM.
